*1 amine or outer side, *2 acyl side, *3 side chain or, on linkers, in order; H or OH if unused. Where a SMILES comes first, the peptide text is derived from it. Bridges are numbered along the chain shown (N, C = ends). [ ]: non-standard residue; d: D form. The star is where a group is joined. hPhe(3,5-F2-4-CF3) = N[C@@H](CCc1cc(F)c(C(F)(F)F)c(F)c1)C(=O)O; hPhe(3-Cl-4-CF3) = N[C@@H](CCc1ccc(C(F)(F)F)c(Cl)c1)C(=O)O; X47 = O=C([C@H](Cc1ccc(C(F)(F)F)cc1)N(CCCF)[*:1])[*:2]; NPrPhe(4-CF3) = CCCN[C@@H](Cc1ccc(C(F)(F)F)cc1)C(=O)O; NMeGly(cPent) = CN[C@H](C(=O)O)C1CCCC1; Pro(4,4-F2) = O=C(O)[C@@H]1CC(F)(F)CN1; NMeGly(cBu) = CN[C@H](C(=O)O)C1CCC1; NMeD = CN[C@@H](CC(=O)O)C(=O)O; NMeL = CN[C@@H](CC(C)C)C(=O)O; αMeV = CC(C)[C@](C)(N)C(=O)O; αMeS = C[C@](N)(CO)C(=O)O; Morpholide = C1CN(*)CCO1; NMeA = CN[C@@H](C)C(=O)O; Ac5c = NC1(C(=O)O)CCCC1; Aze = O=C(O)[C@@H]1CCN1; Sar = CNCC(=O)O
Columns and labels:
[1] = biological target: GDP-bound NRAS wild-type protein (Homo sapiens, UniProt P01111); test: Binding to NRAS by surface plasmon resonance (SPR), Single Cycle Kinetics
GDP-bound NRAS wild-type protein, sequence (P01111 whole entry): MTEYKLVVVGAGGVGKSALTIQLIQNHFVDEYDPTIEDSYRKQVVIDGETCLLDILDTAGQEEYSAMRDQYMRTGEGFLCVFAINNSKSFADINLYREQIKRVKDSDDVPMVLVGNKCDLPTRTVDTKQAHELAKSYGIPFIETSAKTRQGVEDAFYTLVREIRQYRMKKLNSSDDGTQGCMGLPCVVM

[2] = biological target: GDP-bound HRAS wild-type protein (Homo sapiens, UniProt P01112); test: Binding to HRAS by surface plasmon resonance (SPR), Single Cycle Kinetics
GDP-bound HRAS wild-type protein, sequence (P01112 whole entry): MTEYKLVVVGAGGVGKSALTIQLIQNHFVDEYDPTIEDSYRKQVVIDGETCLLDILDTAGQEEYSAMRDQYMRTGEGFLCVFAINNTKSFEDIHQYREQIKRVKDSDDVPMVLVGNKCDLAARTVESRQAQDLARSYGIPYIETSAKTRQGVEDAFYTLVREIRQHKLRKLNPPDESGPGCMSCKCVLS

Q: What does the source list for `CCCN1C(=O)[C@@H]2CCN2C(=O)[C@H](C)N(C)C(=O)[C@H]([C@@H](C)CC)NC(=O)[C@H](C2CCC2)N(C)C(=O)C[C@@H](C(=O)N2CCOCC2)N(C)C(=O)[C@H](C2CCCC2)N(C)C(=O)C2(CCCC2)NC(=O)[C@@H]2CC(F)(F)CN2C(=O)[C@H](CCc2ccc(C(F)(F)F)c(Cl)c2)NC(=O)CN(C)C(=O)[C@@H]1Cc1ccc(C(F)(F)F)cc1` [PP0204] ([NMeGly(cBu)]I[NMeA][Aze][NPrPhe(4-CF3)][Sar][hPhe(3-Cl-4-CF3)][Pro(4,4-F2)][Ac5c][NMeGly(cPent)][NMeD]-Morpholide; lactam N-11)?
A: NRAS/KRAS (ratio of KD for GDP-bound NRAS wild-type to KD for KRAS) ([1]; KD ratio NRAS/KRAS, SPR): C (A compound having a KD ratio of 0.1 or more and less than 3 is denoted as C); HRAS/KRAS (ratio of KD for GDP-bound HRAS wild-type to KD for KRAS) ([2]; KD ratio HRAS/KRAS, SPR): C (A compound having a KD ratio of 0.1 or more and less than 3 is denoted as C)

Q: `CCO[C@@H]1C[C@H]2C(=O)NC3(CCC3)C(=O)N(C)[C@@H](C3CCCC3)C(=O)N(C)[C@H](C(=O)N(C)C)CC(=O)N(CC)[C@@H](CC(C)C)C(=O)N[C@@H]([C@@H](C)CC)C(=O)N(C)CC(=O)N(C)[C@H]3CC(C)=C(C)CN(C3=O)[C@@H](Cc3ccc(C(F)(F)F)cc3)C(=O)N(C)CC(=O)N[C@@H](CCc3cc(F)c(C(F)(F)F)c(F)c3)C(=O)N2C1` [PP1051] was tested. Which “NRAS/KRAS (ratio of KD value with respect to NRAS to KD value with respect to KRAS)” value ([1]; KD ratio, GDP-bound NRAS wild-type vs GDP-bound KRAS wild-type, SPR) did it give?
A: Its value is “C (A compound having a KD ratio of 0.1 or more and less than 3 is denoted as C)”.

Q: What about the “HRAS/KRAS (ratio of KD value with respect to HRAS to KD value with respect to KRAS)” value ([2]; KD ratio, GDP-bound HRAS wild-type vs GDP-bound KRAS wild-type, SPR) of the same compound?
A: Its value is “C (A compound having a KD ratio of 0.1 or more and less than 3 is denoted as C)”.

Q: Which results are given for `CC[C@H](C)[C@@H]1NC(=O)[C@H](CC(C)C)N(C)C(=O)C[C@@H](C(=O)N2CCOCC2)N(C)C(=O)[C@H](C2CCCC2)N(C)C(=O)C2(CCCC2)NC(=O)[C@@H]2CCCN2C(=O)[C@H](CCc2ccc(C(F)(F)F)c(Cl)c2)NC(=O)CN(C)C(=O)[C@H](Cc2ccc(C(F)(F)F)cc2)N(CCCF)C(=O)[C@@H]2CCN2C(=O)[C@H](C)N(C)C1=O` [PP0525] ([NMeL]I[NMeA][Aze][X47][Sar][hPhe(3-Cl-4-CF3)]P[Ac5c][NMeGly(cPent)][NMeD]-Morpholide; lactam N-11)?
A: NRAS/KRAS (ratio of KD value with respect to GDP-bound NRAS wild-type protein to KD value with respect to KRAS) ([1]; KD ratio NRAS/KRAS, SPR): C (A compound having a KD ratio of 0.1 or more and less than 3 is denoted as C); HRAS/KRAS (ratio of KD value with respect to GDP-bound HRAS wild-type protein to KD value with respect to KRAS) ([2]; KD ratio HRAS/KRAS, SPR): B (a compound having 3 or more and less than 10 is denoted as B)

Q: Which “NRAS/KRAS (ratio of KD value with respect to GDP-bound NRAS wild-type protein to KD value with respect to KRAS)” value ([1]; KD ratio NRAS/KRAS, class symbols) does the source give for `CC[C@H](C)[C@@H]1NC(=O)[C@H](COC)N(C)C(=O)C[C@@H](C(=O)N(C)C)N(C)C(=O)[C@H](C2CCCC2)N(C)C(=O)C2(CC(C)(C)C2)NC(=O)[C@@H]2C[C@@H](OC3CCCC3)CN2C(=O)[C@H](CCc2cc(F)c(C(F)(F)F)c(F)c2)NC(=O)CN(C)C(=O)[C@H](Cc2ccc(C)cc2)N2CC/C=C\C[C@@H](C2=O)N(C)C(=O)CN(C2CC2)C1=O` [PP2626] here?
A: The value was “A (a compound having 10 or more and less than 20 is denoted as A)”.

Q: And the “HRAS/KRAS (ratio of KD value with respect to GDP-bound HRAS wild-type protein to KD value with respect to KRAS)” value ([2]; KD ratio HRAS/KRAS, class symbols)?
A: The value was “A (a compound having 10 or more and less than 20 is denoted as A)”.

Q: Which “NRAS/KRAS (ratio of KD value with respect to GDP-bound NRAS wild-type protein to KD value with respect to KRAS)” value ([1]; KD ratio NRAS/KRAS, SPR) does the source give for `CCCN1C(=O)CN(C)C(=O)[C@@H]2CCN2C(=O)[C@H]([C@@H](C)CC)NC(=O)[C@H](CC(C)C)N(C)C(=O)C[C@@H](C(=O)N2CCOCC2)N(C)C(=O)[C@H](C2CCCC2)N(C)C(=O)[C@](C)(COC)NC(=O)[C@@H]2CCCN2C(=O)[C@H](CCc2cc(F)c(C(F)(F)F)c(F)c2)NC(=O)CN(C)C(=O)[C@@H]1Cc1ccc(C(F)(F)F)cc1` [PP0779] ([NMeL]I[Aze][Sar][NPrPhe(4-CF3)][Sar][hPhe(3,5-F2-4-CF3)]P[αMeS](Me)[NMeGly(cPent)][NMeD]-Morpholide; lactam N-11) here?
A: Its value is “B (a compound having 3 or more and less than 10 is denoted as B)”.

Q: And the “HRAS/KRAS (ratio of KD value with respect to GDP-bound HRAS wild-type protein to KD value with respect to KRAS)” value ([2]; KD ratio HRAS/KRAS, SPR)?
A: The value was “B (a compound having 3 or more and less than 10 is denoted as B)”.

Q: Which results are given for `CCCN1C(=O)[C@@H]2CCN2C(=O)CN(C)C(=O)[C@H]([C@@H](C)CC)NC(=O)[C@H](CC(C)C)N(C)C(=O)C[C@@H](C(=O)N2CCOCC2)N(C)C(=O)[C@H](C2CCCC2)N(C)C(=O)[C@](C)(C(C)C)NC(=O)[C@@H]2CCCN2C(=O)[C@H](CCc2cc(F)c(C(F)(F)F)c(F)c2)NC(=O)CN(C)C(=O)[C@@H]1Cc1ccc(C(F)(F)F)cc1` [PP0792] ([NMeL]I[Sar][Aze][NPrPhe(4-CF3)][Sar][hPhe(3,5-F2-4-CF3)]P[αMeV][NMeGly(cPent)][NMeD]-Morpholide; lactam N-11)?
A: NRAS/KRAS (ratio of KD value with respect to GDP-bound NRAS wild-type protein to KD value with respect to KRAS) ([1]; KD ratio NRAS/KRAS, SPR): C (A compound having a KD ratio of 0.1 or more and less than 3 is denoted as C); HRAS/KRAS (ratio of KD value with respect to GDP-bound HRAS wild-type protein to KD value with respect to KRAS) ([2]; KD ratio HRAS/KRAS, SPR): B (a compound having 3 or more and less than 10 is denoted as B)

Q: What does the source list for `CCCN1C(=O)[C@H](C2CCCC2)N(C)C(=O)C2(CCC2)NC(=O)[C@@H]2C[C@@H](OCC)CN2C(=O)[C@H](CCc2cc(F)c(C(F)(F)F)c(F)c2)NC(=O)CN(C)C(=O)[C@H](Cc2ccc(C(F)(F)F)cc2)N2CCCCC[C@@H](C2=O)N(C)C(=O)CN(C)C(=O)[C@H]([C@@H](C)CC)NC(=O)[C@H](CC(C)C)N(C)C(=O)C[C@H]1C(=O)N1CCOCC1` [PP0639]?
A: NRAS/KRAS (ratio of KD value with respect to GDP-bound NRAS wild-type protein to KD value with respect to KRAS) ([1]; KD ratio NRAS/KRAS, SPR): B (a compound having 3 or more and less than 10 is denoted as B); HRAS/KRAS (ratio of KD value with respect to GDP-bound HRAS wild-type protein to KD value with respect to KRAS) ([2]; KD ratio HRAS/KRAS, SPR): B (a compound having 3 or more and less than 10 is denoted as B)

— patent US20250230193A1, “CYCLIC COMPOUND HAVING SELECTIVE KRAS INHIBITORY EFFECT ON HRAS AND NRAS” (CHUGAI SEIYAKU KABUSHIKI KAISHA, priority 2022, published 2025)
